In patent publication US20170304177A1, “USE OF ISOSORBIDE ESTER AND N-ACYLATED AMINO ACID DERIVATIVES AS ANTI-AGEING AGENT FOR THE HUMAN SKIN” (SOCIETE D'EXPLOITATION DE PRODUITS POUR LES INDUSTRIES …, priority 2014, published 2017):

System: Normal human fibroblasts
Assay: In vitro migration of normal human fibroblasts (Oris migration plates, mitomycin C pretreatment, 40 h incubation, Calcein AM labelling)
Format: cell-based
Conditions: for (Dmigr) mean migration distance of the cells: 40 h, mean ± SD of quadruplicates; for [(Dmigr) − (Dmigr)control]/(Dmigr)control, percentage of migratory effect relative to the control: vs FCS culture control
Excerpt: The fibroblast migration test is a test commonly used in the cosmetics and pharmaceutical sector and is especially described in the international patent application published under the number WO 2010/056908 A1. It allows in vitro reproduction of the phenomenon of fibroblast migration; a decrease in the migratory capacities of the fibroblasts being reported as associated with aging of the skin (1) (4).
Normal human fibroblasts at the R5 passage were amplified in a T75 culture flask and then inoculated at 25 000 cells/well in specific culture plates. These plates are dedicated to migration (Oris™ from Platypus), integrating a central zone without initial deposition of cells (stoppers). After 96 hours of plate amplification and 2 hours before the treatment, all the wells were treated with mitomycin C (2 hours at 10 μg/ml), so as to stop the cell proliferation, and thus to observe only the migration phenomenon. The stoppers were removed, and the references, the products or standard medium for fibroblasts containing 2% fetal calf serum (FCS) were applied to the cells under 100 μl, and then incubated for 40 hours at 37° C. under 5% CO2. Each condition was performed in quadruplicate.
On conclusion of the incubation, the cells were labeled with Calcein AM (5 μM, 20 minutes at 37° C.), so as to visualize the viable cells by fluorescence (revelation of the cytoplasm). Photos were taken, after having inserted a black screen under the culture plates, so as to visualize only the zone where the cells were not deposited. Thus, only the cells which had migrated were photographed (×4 objective lens; with a ×0.7 reducer on the camera adapter). The mean migration distance of the cells (Dmigr) was measured with NIS-Elements-BR 3.0 (4 cells). The means and standard deviations of the distances were calculated on the quadruplicates. The percentages of migratory effect relative to the control, and also the statistics (Student test) were also calculated.

Epidermal Growth Factor (EGF) was tested, and the “(Dmigr) mean migration distance of the cells” value (EGF 10 ng/ml) was 203 ± 20 μm, the “[(Dmigr) − (Dmigr)control]/(Dmigr)control, percentage of migratory effect relative to the control” value (EGF 10 ng/ml) was “+21%” and the “(Dmigr) mean migration distance of the cells” value (EGF 50 ng/ml) was 212 ± 8 μm. For the same substance, the “[(Dmigr) − (Dmigr)control]/(Dmigr)control, percentage of migratory effect relative to the control” value (EGF 50 ng/ml) was “+26%” and the “Effect on migration distance of normal human fibroblasts (in words)” value (summary statement on Table 1, EGF at 10 and 50 ng/ml, compositions at 5 and 10 μg/ml) was “increase in the migration distance”.
